Data as given in patent US20080226596A1, “Therapeutic compositions and methods useful in treating hepatitis” (priority 2006, published 2008).

What was measured:
A549 cells = experiment: A549 lung cancer cell growth, MTT assay; type: cell-based, human; conditions: 100 μg/ml, day 6
Description: (§1) NIH3T3 (Yi, et al., Blood 85, 87 (1995)), WM9 (Forsberg, et al., Proc. Nat. Acad Sci. USA 90, 393 (1993)), DU145 (Mickey, et al., Cancer Res. 37, 4049 (1977)), LoVo (Drewinko, et al., Cancer Res. 36, 467 (1976)), HEY (Buick, et al., Cancer Res. 45, 3668 (1985)), U251 (Yoshida, et al., Cancer 50, 410 (1982)), A549 (Giard, et al., J. Natl. Cancer Inst. 51, 1417 (1973)) and SK-N-SH (Helson, et al., Cancer Res. 35, 2594 (1975)) cell lines have been described and were cultured in RPMI 1640 supplemented with 10% fetal calf serum (FCS). For measurement of sodium stibogluconate effects on cell growth in vitro, cells were cultured in the absence (−) or presence (+) of various amounts of sodium stibogluconate for 6 days with viable cells quantified by MTT assays (Mosmann, J. Immunol. Methods 65, 55 (1983)). Percentages of growth inhibition by sodium stibogluconate were calculated (.+−.x

U251 cells = experiment: U251 glioma cell growth, MTT assay; type: cell-based, human; conditions: 100 μg/ml, day 6
Description: as §1

Renca cells = experiment: Renca cell growth in culture, MTT assay; type: cell-based, murine; conditions: SSG 6.25-200 μg/ml, 6 days; listed as SSG
Description: Renca (Murphy, G. P., and W. J. Hrushesky. 1973. A murine renal cell carcinoma. J Natl Cancer Inst 50:1013), Jurkat (Gillis, S., and J. Watson. 1980. Biochemical and biological characterization of lymphocyte regulatory molecules. V. Identification of an interleukin 2-producing human leukemia T cell line. J Exp Med 152:1709) and WM9 (Forsberg, K., I. Valyi-Nagy, C. H. Heldin, M. Herlyn, and B. Westermark. 1993. Platelet-derived growth factor (PDGF) in oncogenesis: development of a vascular connective tissue stroma in xenotransplanted human melanoma producing PDGF-BB. Proc Natl Acad Sci USA 90:393) cell lines were obtained from a colleague at the Cleveland Clinic Foundation (CCF) and cultured in RPMI 1640 medium supplemented with 10% fetal calf serum (FCS). […] SSG has been described previously (Yi, T., M. K. Pathak, D. J. Lindner, M. E. Ketterer, C. Farver, and E. C. Borden. 2002. Anticancer activity of sodium stibogluconate in synergy with IFNs. J Immunol 169:5978). For cell growth inhibition assays, cells were cultured in absence or presence of various amounts of SSG for 6 days with viable cells quantified by MTT assays as described elsewhere (Pathak, M. K., and T. Yi. 2001. Sodium stibogluconate is a potent inhibitor of protein tyrosine phosphatases and augments cytokine responses in hemopoietic cell lines. J Immunol 167:3391).

Baf3 cells = experiment: Baf3 cell proliferation assay; type: cell-based, murine
Description: (§2) The murine hematopoietic cell line Baf3 was maintained in RPMI 1640 medium supplemented with 10% fetal calf serum (FCS) and murine IL-3 (20 units/ml) as described previously in Damen et al., J. Biol. Chem. 270, 23402 (1995). Human myeloid cell line TF-1 was maintained in RPMI 1640 supplemented with 10% FCS and 40 ng/ml of recombinant human GM-CSF as described previously in Thomassen et al., Clin. Immunol. 95, 85 (2000). For cell proliferation assays, cells were washed in 10% FCS medium twice, resuspended in 10% FCS medium, incubated at 37° C. for 16 hours, and then cultured at 37° C. in 10% FCS medium containing various amounts of cytokines, sodium stibogluconate, or potassium antimonyl tartrate for 3-6 days as indicated. The cell numbers in proliferation assays were determined by an MTT assay or by microscopic cell counting as indicated.

LoVo cells = experiment: LoVo colon cancer cell growth, MTT assay; type: cell-based, human; conditions: 100 μg/ml, day 6
Description: as §1

C42 cells = experiment: C42 prostate cancer cell growth; type: cell-based, human
Description: For cell proliferation assays, cells were grown in 10% FCS culture medium containing various amounts of IFNs and/or sodium stibogluconate in 96 well plates and cultured at 37° C. for 3 or 6 days as indicated. The numbers of viable cells in proliferation assays were determined by MTT assays as described in Phatak et al., J. Immunol. 167, 3391 (2001).

[1] = system: Renca tumor-infiltrating immune cells; experiment: Renca tumor-infiltrating immune cells, immunohistochemistry; set-up: species or system Balb/c mice; conditions: mouse, in vivo
Description: Major internal organs and Renca tumors harvested from mice were fixed in 10% formalin or snap frozen in liquid nitrogen. H & E-stained tissue sections of the fixed samples were prepared and evaluated by microscopy as described previously (Yi, T., M. K. Pathak, D. J. Lindner, M. E. Ketterer, C. Farver, and E. C. Borden. 2002. Anticancer activity of sodium stibogluconate in synergy with IFNs. J Immunol 169:5978). Preparation of frozen tissue sections and immunohistochemistry were performed following established procedures (Joliat, M. J., P. A. Lang, B. L. Lyons, L. Burzenski, M. A. Lynes, T. Yi, J. P. Sundberg, and L. D. Shultz. 2002. Absence of CD5 dramatically reduces progression of pulmonary inflammatory lesions in SHP-1 protein-tyrosine phosphatase-deficient ‘viable motheaten’ mice. J Autoimmun 18:105). The antibodies used for immunohistochemistry were anti-CD4 (rat mAb, clone GK1.5, BD Biosciences, Franklin Lakes, N.J.), anti-CD8 (rat mAb, clone 53-6.7.5, BD Biosciences, Franklin Lakes, N.J.), anti-F4/80 (rat mAb, clone A3-1, Serotec, Oxford, UK) and anti-Asialo GM1 (rabbit polyclonal, Cedarlane, Hornby, Canada). […] Tissue sections of 2 mice/group were evaluated. The number of immune cells was semi-quantified based on the following scheme: […], 0-1 positive cells/40×field; +, 2-5 positive cells/40×field; ++, 6-10 positive cells/40×field, etc.

NB4 cells = experiment: NB4 Annexin V/propidium iodide assay; type: cell-based, human; conditions: 250 μg/ml, 6 days
Description: Annexin V staining of exposed membrane phospholipid phosphatidylserine (PS) was done using the Annexin V assay kit (Pharmingen, San Diego, Calif.). […] Cells were then washed in PBS twice and stained in binding buffer (10 mM Hepes, pH 7.4; 140 mM NaCl; 2.5 mM CaCl2) containing Annexin V-FITC and propidium iodide for 15 min. The reaction was stopped by adding 10 volumes of binding buffer and analyzed by FACS (Becton Dickinson Facsvantage).

TF-1 cells = experiment: TF-1 cell proliferation assay; type: cell-based, human
Description: as §2

SMILES: O.O.O.O.O.O.O.O.O.O=C([O-])[C@@H]1[O][Sb]2([O-])([O][Sb]34([OH])[O][C@H]([C@H](O)CO)[C@H]([O]3)[C@H](C(=O)[O-])[O]4)[O][C@H]([C@H](O)CO)[C@@H]1[O]2.[Na+].[Na+].[Na+] [sodium stibogluconate]
- killing of A549 cells (A549 cells): near-complete cell killing
- killing of U251 cells (U251 cells): near-complete cell killing
- Renca cell growth in culture (Renca cells): failed to inhibit Renca cell proliferation in culture
- IL-3-induced Baf3 growth (Baf3 cells; 1,000 μg/ml): suppressed IL-3-induced Baf3 growth
- Baf3 proliferation/viability (Baf3 cells; absence of IL-3, day 3 culture): failed to support cell proliferation or maintain cell viability
- killing of LoVo cells (LoVo cells): near-complete cell killing
- effect on C42 cells (C42 cells): highly resistant
- numbers of tumor-infiltrating T cells or NK cells [1]: little effect
- Annexin V staining of NB4 cells (NB4 cells): stained positive by Annexin V
- effect on GM-CSF-induced cell growth (TF-1 cells; 12.5-50 μg/ml): no negative effect on GM-CSF-induced cell growth
- GM-CSF-induced TF-1 proliferation (TF-1 cells; sodium stibogluconate 50 μg/ml, GM-CSF 5-40 ng/ml): augmented
